# Measurements taken from patent US6780855B2, “11β-HALOGEN-7α-SUBSTITUTED ESTRATRIENES, PROCESS FOR THE PRODUCTION OF PHARMACEUTICAL PREPARATIONS THAT CONTAIN THESE 11β-HALOGEN-7α-SUBSTITUTED ESTRATRIENES AS WELL AS THEIR USE FOR THE PRODUCTION OF PHARMACEUTICAL AGENTS” (Schering Aktiengesellschaft, priority 1997, dated 2004).
# Key:
# [1] = tested on: MVLN cells; assay: Transactivation assay for antiestrogenic action in MVLN cells (reporter gene Vit-TK-LUC); format: cell-based; details: Homo sapiens; MVLN cell line, in the presence of 0.1 nM of estradiol
# Description: (§1) The antiestrogenic action of the compounds according to the invention was determined in transactivation assays [Demirpence, E.; Duchesne, M.-J.; Badia, E.; Gagne, D. and Pons, M.: MVLN Cells: a Bioluminescent MCF-7-Derived cell Line to Study the Modulation of Estrogenic Activity; J. Steroid. Molec. Biol. Vol. 46, No. 3, 355-364 (1993) and Berry, M.; Metzger, D.; Chambon, P.: Role of the Two Activating Domains of the Estrogen Receptor in the Cell-type and Promoter-context Dependent Agonistic Activity of the Anti-estrogen 4-Hydroxytamoxifen; The EMBO Journal Vol. 9, 2811-2818 (1990)].
# The MVLN cells are transfixed in a stable manner with reporter gene Vit-TK-LUC. The antiestrogenic active strength was determined in the presence of 0.1 nM of estradiol.
# (§2) The IC50 values for the new compounds are in the nanomolar range. In the MVLN cell line, the following IC50 values are produced for the compound of Examples 3 and 8 (execution of test according to the above-indicated bibliographic references): […]
# [2] = tested on: HeLa; assay: Transactivation assay for antiestrogenic action in HeLa cells; format: cell-based; details: Homo sapiens
# Description: as §1, §2
# [3] = tested on: uterus; assay: Uterus growth test in infantile rats (antiestrogenic action), p.o.; format: in vivo; details: 0.3 mg p.o. once daily over 3 days with 0.5 μg estradiol benzoate s.c., inhibition compared to EB-control
# Description: The uterus growth test in infantile rats, p.o. (test on antiestrogenic action in vivo) also confirms the antiestrogenic action of the compounds according to the invention. The test was performed as described below:
# Uterus Growth Test in Infantile Rats (Antiestrogenic Action)
# In rodents, the uterus reacts to the application of estrogens with an increase in weight (both proliferation and water retention). This growth can be inhibited in a dose-dependent manner by simultaneous administration of compounds that have an antiestrogenic action.
# Infantile female rats weighing 35-45 g at the beginning of the test, 5-6 animals per dose.
# Formulation and Administration of the Substances: […]
# For the p.o. administration, the substances are dissolved in 1 part ethanol (E) and made up with 9 parts peanut oil (EÖ).
# The young rats just dropped by the mothers are delivered for acclimation one day before the beginning of treatment and immediately supplied with food—right in the cage. […] The moist weight (less contents) is determined from the prepared uteri. […]
# The average values are determined with standard deviation (X+SD) and the significance of the differences in the control group (EB) in the Dunnett Test (p<0.05) for each group from the relative organ weights (mg/100 g of body weight). […] The relative actions of the test substances are determined by co-variance analysis and regression analysis.
# [4] = tested on: human estrogen receptor; assay: Partial estrogenic action: transactivation assay, HeLa cells with HEGO and reporter gene rPR-TK-CAT; format: cell-based; details: concentration of 1 μm, negative value means suppression of reporter gene activity below controls
# Description: The partial estrogenic action of compounds according to the invention was determined by transactivation assays. HeLa cells were transfixed with human estrogen receptor expression vector (HEGO) and a reporter gene rPR-TK-CAT. This reporter gene contains the “Estrogen Responsive Element” of the rabbit progesterone receptor gene (+698/+729 region) before a TK-CAT gene (Savouret, J. F.; Bailly, A.; Misrahi, M.; Rauch, C.; Redeuilh, G.; Chauchereau, A.; Milgrom, E., Characterization of the Hormone Responsive Element Involved in the Regulation of the Progesterone Receptor Gene. EMBO J. 10, 1875-1883 (1991).
# The estrogenic action was determined at a concentration of 1 μm.
melting point,Compound,IC50 [1],IC50 [2],Antiuterotrophic action at 0.3 mg [% inhibition] [3],Activation of the rPR-TK Promoter [% estradiol] [4]
110 °C,CN(CCCCCCCC(F)(F)C(F)(F)F)CCCCC[C@@H]1Cc2cc(O)ccc2[C@@H]2[C@@H]1[C@@H]1CC[C@H](O)[C@@]1(C)C[C@@H]2F,–,–,–,–
–,"CN(CCCCCCCCC(F)(F)C(F)(F)F)CCCCC[C@@H]1Cc2cc(O)ccc2[C@@H]2[C@@H]1[C@@H]1CC[C@H](O)[C@@]1(C)C[C@@H]2F [Example 3, 11β-Fluoro-7α-{5-[methyl-(9,9,10,10,10-pentafluoro-decyl)-amino]-pentyl}-estra-1,3,5(10)-triene-3,17β-diol]",6.3 nM,0.2 nM,68 % inhibition,−25 % estradiol
–,"CN(CCCCC[C@@H]1Cc2cc(O)ccc2[C@@H]2[C@@H]1[C@@H]1CC[C@H](O)[C@@]1(C)C[C@@H]2F)CCCC(F)(F)C(F)(F)F [Example 8, 11β-Fluoro-7α-{5-[methyl-(4,4,5,5,5-pentafluoro-pentyl)-amino]-pentyl}-estra-1,3,5(10)-triene-3,17β-diol]",37 nM,8 nM,0 % inhibition,48 % estradiol
–,"CN(CCCCCCC(F)(F)C(F)(F)F)CCCCC[C@@H]1Cc2cc(O)ccc2[C@@H]2[C@@H]1[C@@H]1CC[C@H](O)[C@@]1(C)C[C@@H]2F [Example 12, 11β-Fluoro-7α-{5-[methyl-(7,7,8,8,8-pentafluor-octyl)-amino]-pentyl}-estra-1,3,5(10)-triene-3,17β-diol]",–,–,–,34 % estradiol
–,"CN(CC=C(F)C(F)(F)C(F)(F)C(F)(F)F)CCCCC[C@@H]1Cc2cc(O)ccc2[C@@H]2[C@@H]1[C@@H]1CC[C@H](O)[C@@]1(C)C[C@@H]2F [Example 18, 11β-Fluoro-7α-{5-[methyl-(3,4,4,5,5,6,6,6-octafluoro-hex-2-enyl)-amino]-pentyl}-estra-1,3,5(10)-triene-3,17β-diol]",–,–,–,29 % estradiol
–,"CN(CCCCC[C@@H]1Cc2cc(O)ccc2[C@@H]2[C@@H]1[C@@H]1CC[C@H](O)[C@@]1(C)C[C@@H]2F)CCCOCc1ccccc1 [Example 22, 7α-{5-[(3-Benzyloxy-propyl)-methyl-amino]-pentyl}-11β-fluor-estra-1,3,5(10)-triene-3,17β-diol]",–,–,–,53 % estradiol
